Experimental data: US20090054392A1, “NAPHTHYLPYRIMIDINE, NAPHTHYLPYRAZINE AND NAPHTHYLPYRIDAZINE ANALOGS AND THEIR USE AS AGONISTS OF THE WNT-BETA-CATENIN CELLULAR MESSAGING SYSTEM” (Wyeth, priority 2007, published 2009)
Read-outs that look alike come from different tables or passages of the source.

Test system: Dkk1-LRP5-TCF-Luciferase
Test: Functional Dkk1-LRP5-TCF-Luciferase Assay in U2OS Cells
Details: for fold induction at 2 µM / fold induction at 20 µM / EC50: Homo sapiens, U2OS; for fold induction at 20 µM: read-out: C = TCF ACTIVITY/DMSO CONTROL Fold induction @ 20.0 uM, 20.0 uM compound; for A = MAX FOLD Induction/DMSO CONTROL: maximum fold induction over DMSO control
[1] = read-out: B = TCF ACTIVITY/DMSO CONTROL Fold induction @ 2.0 uM, 2.0 uM compound

SMILES	fold induction at 2 µM [1]	fold induction at 20 µM	A = MAX FOLD Induction/DMSO CONTROL [fold]	EC50 [µM]	fold induction at 2 µM (read-out: B = TCF ACTIVITY/DMSO CONTROL Fold induction @ 2.0 uM)
CN(c1nccc(-c2ccc3ccccc3c2)n1)C1CCN(C(=O)C(F)(F)F)CC1 [N-methyl-4-(2-naphthyl)-N-[1-(trifluoroacetyl)piperidin-4-yl]pyrimidin-2-amine]	1.03	1.06			
O=C(NCC1CCN(c2nccc(-c3ccc4ccccc4c3)n2)C1)c1ccccc1 (stereo not shown) [N-({1-[4-(2-naphthyl)pyrimidin-2-yl]pyrrolidin-3-yl}methyl)benzamide]	1.06	1.03			
c1ccc2cc(-c3ccnc(N4CCC(CN5CCCCCC5)C4)n3)ccc2c1 (stereo not shown) [1-({1-[4-(2-naphthyl)pyrimidin-2-yl]pyrrolidin-3-yl}methyl)azepane]	2.33		2.260		
CC(C)(C)OC(=O)N1CCC(CNc2nccc(-c3ccc4ccccc4c3)n2)CC1 [tert-butyl 4-({[4-(2-naphthyl)pyrimidin-2-yl]amino}methyl)piperidine-1-carboxylate]	0.93	1.18			
c1cncc(CNc2nccc(-c3ccc4ccccc4c3)n2)c1 [4-(2-naphthyl)-N-(pyridin-3-ylmethyl)pyrimidin-2-amine]	1.55	1.41	1.960	5.9	
CC(C)(C)OC(=O)NCCC1CN(c2nccc(-c3ccc4ccccc4c3)n2)C1 [tert-butyl {2-[1-(4-naphthalen-2-ylpyrimidin-2-yl)azetidin-3-yl]ethyl}carbamate]		1.6			
CNCC1CCN(c2nccc(-c3ccc4ccccc4c3)n2)CC1 [N-methyl-1-{1-[4-(2-naphthyl)pyrimidin-2-yl]piperidin-4-yl}methanamine]	1.49	0.01	2.840		
NCCC1CCN(c2nccc(-c3ccc4ccccc4c3)n2)CC1 [2-{1-[4-(2-naphthyl)pyrimidin-2-yl]piperidin-4-yl}ethanamine]	2.15	0.005	1.420		
CS(=O)(=O)N1CCC(CNc2nccc(-c3ccc4ccccc4c3)n2)CC1 [N-{[1-(methylsulfonyl)piperidin-4-yl]methyl}-4-(2-naphthyl)pyrimidin-2-amine]	1.54	1.35			
CCOC(=O)CC1CCN(c2nccc(-c3ccc4ccccc4c3)n2)CC1 [ethyl {1-[4-(2-naphthyl)pyrimidin-2-yl]piperidin-4-yl}acetate]	1.26	1.06			
N=C(N)N[C@@H]1CCN(c2nccc(-c3ccc4ccccc4c3)n2)C1 [N-{(3R)-1-[4-(2-naphthyl)pyrimidin-2-yl]pyrrolidin-3-yl}guanidine]	1.63	0.65			
CCOC(=O)N[C@H]1CCN(c2nccc(-c3ccc4ccccc4c3)n2)C1 [ethyl {(3S)-1-[4-(2-naphthyl)pyrimidin-2-yl]pyrrolidin-3-yl}carbamate]	1.02	1.94			
c1ccc2cc(-c3ccnc(N4CCC(CN5CCSCC5)C4)n3)ccc2c1 (stereo not shown) [4-({1-[4-(2-naphthyl)pyrimidin-2-yl]pyrrolidin-3-yl}methyl)thiomorpholine]	1.9				
CN(c1nccc(-c2ccc3ccccc3c2)n1)C1CCN(c2ncccn2)CC1 [N-methyl-4-(2-naphthyl)-N-(1-pyrimidin-2-ylpiperidin-4-yl)pyrimidin-2-amine]	1.7				
CCNC(=O)NCCC1CCN(c2nccc(-c3ccc4ccccc4c3)n2)CC1 [N-ethyl-N′-(2-{1-[4-(2-naphthyl)pyrimidin-2-yl]piperidin-4-yl}ethyl)urea]	1.78	1.87			
O=C(CN1CCN(c2nccc(-c3ccc4ccccc4c3)n2)CC1)N1CCOCC1 [4-({4-[4-(2-naphthyl)pyrimidin-2-yl]piperazin-1-yl}acetyl)morpholine]	1.03	2.1	1.180		
NCC1CCN(c2nccc(-c3ccc4cc(CN5CCOCC5)ccc4c3)n2)CC1 [1-(1-{4-[6-(morpholin-4-ylmethyl)-2-naphthyl]pyrimidin-2-yl}piperidin-4-yl)methanamine]	1.1				
O=C(O)C1CCN(c2nccc(-c3ccc4ccccc4c3)n2)CC1 [1-[4-(2-naphthyl)pyrimidin-2-yl]piperidine-4-carboxylic acid]	1.78	0.57			
c1ccc2cc(-c3ccnc(N4CC[C@@H](n5ccnc5)C4)n3)ccc2c1 [2-[(3R)-3-(1H-imidazol-1-yl)pyrrolidin-1-yl]-4-(2-naphthyl)pyrimidine]	1.31	3.9	1.960		
C[C@H](NC(=O)OC(C)(C)C)C1CCN(c2nccc(-c3ccc4ccccc4c3)n2)CC1 [tert-butyl ((1S)-1-{1-[4-(2-naphthyl)pyrimidin-2-yl]piperidin-4-yl}ethyl)carbamate]		1.08			

SMILES	fold induction at 2 µM [1]	fold induction at 20 µM	A = MAX FOLD Induction/DMSO CONTROL [fold]	EC50 [µM]	fold induction at 2 µM (read-out: B = TCF ACTIVITY/DMSO CONTROL Fold induction @ 2.0 uM)
c1ccc2cc(-c3ccnc(N4CCC(CN5CCNCC5)CC4)n3)ccc2c1 [4-(2-naphthyl)-2-[4-(piperazin-1-ylmethyl)piperidin-1-yl]pyrimidine]	5.17	0.01	2.510		
OCC1CCCN([C@@H]2CCN(c3nccc(-c4ccc5ccccc5c4)n3)C2)C1 (stereo partly drawn) [(1-{(3R)-1-[4-(2-naphthyl)pyrimidin-2-yl]pyrrolidin-3-yl}piperidin-3-yl)methanol]	1.49				
c1ccc2cc(-c3ccnc(N4CC[C@@H](N5CC6CCNC6C5)C4)n3)ccc2c1 (stereo partly drawn) [5-{(3R)-1-[4-(2-naphthyl)pyrimidin-2-yl]pyrrolidin-3-yl}octahydropyrrolo[3,4-b]pyrrole]	2.2				
CN(C)[C@H]1CCN(C(=O)[C@@H]2CCCN2c2nccc(-c3ccc4ccccc4c3)n2)C1 [(3S)—N,N-dimethyl-1-{1-[4-(2-naphthyl)pyrimidin-2-yl]-L-prolyl}pyrrolidin-3-amine]	1.16	3.37	2.175		
O=C(NC1CCCN(c2nccc(-c3ccc4ccccc4c3)n2)CC1)c1ccccc1 (stereo not shown) [N-{1-[4-(2-naphthyl)pyrimidin-2-yl]azepan-4-yl}benzamide]	1.23	1.07			
CN(c1nccc(-c2ccc3ccccc3c2)n1)C1CCN(C=O)CC1 [4-{methyl[4-(2-naphthyl)pyrimidin-2-yl]amino}piperidine-1-carbaldehyde]	1.73	1.29			
CS(=O)(=O)N1CC(CNc2nccc(-c3ccc4ccccc4c3)n2)C1 [N-{[1-(methylsulfonyl)azetidin-3-yl]methyl}-4-(2-naphthyl)pyrimidin-2-amine]		1.52			
NCC1CCN(c2nccc(-c3ccc4cc(O)ccc4c3)n2)CC1 [6-{2-[4-(aminomethyl)piperidin-1-yl]pyrimidin-4-yl}-2-naphthol]	1.88	0.015			
CN(C)CCCN(C)[C@@H]1CCN(c2nccc(-c3ccc4ccccc4c3)n2)C1 [N,N,N′-trimethyl-N′-{(3R)-1-[4-(2-naphthyl)pyrimidin-2-yl]pyrrolidin-3-yl}propane-1,3-diamine]	1.3				
CC(C)(C)OC(=O)NCC1CN(c2nccc(-c3ccc4ccccc4c3)n2)C1 [tert-butyl ({1-[4-(2-naphthyl)pyrimidin-2-yl]azetidin-3-yl}methyl)carbamate]	1.41	0.46			
CC(=O)N1CC(CNc2nccc(-c3ccc4ccccc4c3)n2)C1 [N-[(1-acetylazetidin-3-yl)methyl]-4-(2-naphthyl)pyrimidin-2-amine]	1.8				
Cc1ccc(S(=O)(=O)N[C@H]2CCN(c3nccc(-c4ccc5ccccc5c4)n3)C2)cc1 [4-methyl-N-{(3S)-1-[4-(2-naphthyl)pyrimidin-2-yl]pyrrolidin-3-yl}benzenesulfonamide]	1.24				
c1ccc(CN2CCC(CNc3nccc(-c4ccc5ccccc5c4)n3)CC2)cc1 [N-[(1-benzylpiperidin-4-yl)methyl]-4-(2-naphthyl)pyrimidin-2-amine]		1.49			
O=C(N[C@@H]1CCN(c2nccc(-c3ccc4ccccc4c3)n2)C1)N1CCOCC1 [N-{(3R)-1-[4-(2-naphthyl)pyrimidin-2-yl]pyrrolidin-3-yl}morpholine-4-carboxamide]	1.91				
CS(=O)(=O)N1CC[C@H](Nc2nccc(-c3ccc4ccccc4c3)n2)C1 [N-[(3S)-1-(methylsulfonyl)pyrrolidin-3-yl]-4-(2-naphthyl)pyrimidin-2-amine]	1.41	2.26	2.585	2.9	
NC[C@H]1C[C@H]2C[C@@H]1CN2c1nccc(-c2ccc3ccccc3c2)n1 [1-{(1S,4S,5S)-2-[4-(2-naphthyl)pyrimidin-2-yl]-2-azabicyclo[2.2.1]hept-5-yl}methanamine]	1.2				
O=C([C@H]1CCCN1c1nccc(-c2ccc3ccccc3c2)n1)N1CCCC1 [4-(2-naphthyl)-2-[(2R)-2-(pyrrolidin-1-ylcarbonyl)pyrrolidin-1-yl]pyrimidine]	1.05	1.1			
CN(C)C(=O)NCC1CN(c2nccc(-c3ccc4ccccc4c3)n2)C1 [N,N-dimethyl-N′-({1-[4-(2-naphthyl)pyrimidin-2-yl]azetidin-3-yl}methyl)urea]	0.99	1.43			
c1ccc2cc(-c3ccnc(N4CCNCC4)n3)ccc2c1 [4-(2-naphthyl)-2-piperazin-1-ylpyrimidine]			2.050		2.64
CCNC(=O)N[C@H]1CCN(c2nccc(-c3ccc4ccccc4c3)n2)C1 [N-ethyl-N′-{(3S)-1-[4-(2-naphthyl)pyrimidin-2-yl]pyrrolidin-3-yl}urea]	1.03	0.6			
